Read-outs that look alike come from different tables or passages of the source.
What was measured:
[1] = molecular target: T1, CPG2 (Pseudomonas sp., UniProt P06621); assay type: biochemical, Pseudomonas sp. strain RS-16
Method: (§1) A stock solution of 10 mM Tomudex in 100 mM Tris-HCl pH7.3 was prepared and used to prepare a series of dilutions from 0-100 μM in 100 mM Tris-HCl pH 7.3. 990 μl of each dilution was placed in a quartz cuvette and pre-warmed to 37° C. 10 μl of enzyme solution was added to initiate the reaction and the progress of the reaction was followed by measuring the rate of change in absorbance at 356 nm.
Measurement of the rate of reaction at a range of substrate concentrations, from 1-100 μM allows the Km and kcat for the enzyme to be determined using appropriate computer software such as “Enzfitter” (Biosoft; Cambridge, UK).
as §1, with “LY309887” for “Tomudex”, “is” for “was”, “pre-warned” for “pre-warmed”, “a suitable wavelength. […] Measurement of the rate of reaction at a range of substrate concentrations, from 1-100 μM allows the Km and kcat for the enzyme to be determined using Enzfitter computer software.” for “356 nm.”
as §1, with “AG2034” for “Tomudex”, “is” for “was”, “a suitable wavelength. […] Measurement of the rate of reaction at a range of substrate concentrations, from 1-100 μM allows the Km and kcat for the enzyme to be determined using Enzfitter computer software.” for “356 nm.”
as §1, with “AG2037” for “Tomudex”, “is” for “was”, “a suitable wavelength. […] Measurement of the rate of reaction at a range of substrate concentrations, from 1-100 μM allows the Km and kcat for the enzyme to be determined using Enzfitter computer software.” for “356 nm.”

[2] = Rescue of Tomudex toxicity in a patient by administration of CPG2 (with or without thymidine); assay type: in vivo; conditions: thymidine given together with CPG2 to a patient with toxic plasma levels of Tomudex
Method: A patient who has been administered Tomudex and has toxic plasma levels of Tomudex is administered a dose of 50 Units per kg body weight of CPG2 by intravenous injection over a period of about 5 minutes.
A patient who has been administered Tomudex and has toxic plasma levels of Tomudex is administered a dose of 50 Units per kg body weight of CPG2 by intravenous injection over a period of about 5 minutes and is also administered thymidine.

[3] = molecular target: T1, CPG2; conditions: substrate of CPG2; Sherwood et al (1985); cited from earlier work
[4] = 3-weekly schedule, paediatric population; cited from earlier work
[5] = test system: bone marrow cells; conditions: MTX 100 μM, leucovorin calcium 1,000 μM; cited from earlier work
[6] = example in present tense, no values given
[7] = substrate of CPG2, spectrophotometric assay, 100 mM Tris-HCl pH 7.3, 37° C., 356 nm

T1 sequence (P06621 23-415): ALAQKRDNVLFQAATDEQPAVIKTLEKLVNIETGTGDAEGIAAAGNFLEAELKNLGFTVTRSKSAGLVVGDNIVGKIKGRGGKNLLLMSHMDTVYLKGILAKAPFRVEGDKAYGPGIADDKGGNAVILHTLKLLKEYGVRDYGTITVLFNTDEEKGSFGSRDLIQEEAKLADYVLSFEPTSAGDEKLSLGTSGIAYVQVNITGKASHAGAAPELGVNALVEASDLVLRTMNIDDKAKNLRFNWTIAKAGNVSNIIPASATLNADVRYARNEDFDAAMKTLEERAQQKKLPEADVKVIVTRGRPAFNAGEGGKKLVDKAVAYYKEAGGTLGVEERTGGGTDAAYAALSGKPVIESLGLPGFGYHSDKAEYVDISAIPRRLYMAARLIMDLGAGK

Structure (SMILES): Cc1cc(C(=O)N[C@@H](CCC(=O)O)C(=O)O)sc1CC[C@@H]1CNc2nc(N)[nH]c(=O)c2C1 [AG2037]
- substrate of CPG2 (contacted with CPG2 in vitro) [1, 6]: found to be a substrate of CPG2

Structure (SMILES): Cc1cn([C@H]2C[C@H](O)[C@@H](CO)O2)c(=O)[nH]c1=O [thymidine]
- rescue of cellular toxicity associated with Tomudex [2]: rescues the cellular toxicity associated with the Tomudex

Structure (SMILES): Nc1nc2c(c(=O)[nH]1)C[C@@H](CCc1ccc(C(=O)N[C@@H](CCC(=O)O)C(=O)O)s1)CN2 [LY309887]
- substrate of CPG2 (contacted with CPG2 in vitro) [1, 6]: found to be a substrate of CPG2

Structure (SMILES): Nc1nc2c(c(=O)[nH]1)N(C=O)C(CNc1ccc(C(=O)N[C@@H](CCC(=O)O)C(=O)O)cc1)CN2 (some centres unmarked) [5-formyl TIE, 5-formyl tetrahydrofolic acid]
- Km [3]: 120 µM

Structure (SMILES): Nc1nc2ncc(CNc3ccc(C(=O)N[C@@H](CCC(=O)O)C(=O)O)cc3)nc2c(=O)[nH]1 [folate]
- Km [3]: 4 µM

Structure (SMILES): Cc1nc2ccc(CN(C)c3ccc(C(=O)N[C@@H](CCC(=O)O)C(=O)O)s3)cc2c(=O)[nH]1 [Tomudex]
- maximum tolerated dose [4]: 6 mg/m^2
- substrate of CPG2 (contacted with CPG2 in vitro) [1]: found to a substrate of CPG2
- Km [1, 7]: 7.8 µM
- kcat [1, 7]: 24 s⁻¹

Structure (SMILES): Nc1nc(=O)c2c([nH]1)NCC(CNc1ccc(C(=O)N[C@@H](CCC(=O)[O-])C(=O)[O-])cc1)N2C=O.[Ca+2] (some centres unmarked) [leucovorin calcium, calcium salt of 5-formyl tetrahydrofolic acid]
- protection of bone marrow cells from MTX toxicity [5]: unable to protect bone marrow cells from toxicity

Structure (SMILES): CN1c2c(nc(N)[nH]c2=O)NCC1CNc1ccc(C(=O)N[C@@H](CCC(=O)O)C(=O)O)cc1 (some centres unmarked) [5-methyl THF]
- Km [3]: 34 µM

From patent US20070243182A1, “Use of Carboxypeptidease G for Combating Antifolate Toxicity” (Protherics Medicines Development Limited, priority 2004, published 2007)
